Reference: patent US12011474B2, “Composition comprising a mixture of molecules extracted from Chrysanthellum indicum, Cynara scolymus and Lycium barbarum and use to act on carbohydrate and/or fat metabolism” (VALBIOTIS, priority 2015, dated 2024)

Tested on: db/db mice
Experiment: Fasting blood glucose in db/db mice
Assay type: in vivo
Details: same db/db model, separate experiment with younger mice, control group 414 mg/dL
Text: The experiments were done on db/db mice.
The experimental time was 9 weeks with a “Run-in” of 1 week followed by 8 weeks of supplementation with the plant extracts and a composition X. The male mice were 10 weeks old at the beginning of treatment.
The experimental assessments in particular pertained to: • The measurement of the serous lipids (total cholesterol, LDL cholesterol, triglycerides); • The evolution of the blood glucose during an oral sensitivity test to insulin. This test consisted of an intraperitoneal injection of insulin (2 U/kg) on an empty stomach. The evolution of the blood glucose in response to the insulin injection was measured in the tail by biopsy just before the injection (t0), then after 30, 60, 90 and 120 minutes. The area under the curve (AUC) was calculated. A decrease in the AUC reflects a better response to the insulin injection, and therefore improved insulin sensitivity. Conversely, an increase in the AUC reflects a lower quality sensitivity to the insulin, and therefore insulin resistance; • The measurement of the fasting blood glucose.
The evaluations presented were done just before the supplementation (t=0) and at the end of supplementation (t=8 weeks).

**Q.** Which Fasting blood glucose does the source give for CN(C)C(=N)N=C(N)N [metformin] here?
**A.** Its Fasting blood glucose is 463 mg/d L.

**Q.** And the “Increase of fasting blood glucose versus control group” value?
**A.** Its value is 11%.
